Results from paper PMC10412585 (Nature Communications, 2023).

Columns and labels:
NKG2A-/NKG2C+ NK cells = assay: NK cell activation assay with peptide-pulsed K562/HLA-E cells, NKG2A-/NKG2C+ NK cells; format: cell-based, human; details: K562/HLA-E target cells, 300 µM peptide ([…] µM BFAR263-271), E:T 2:1, 6 h; degranulation (CD107a), IFN-γ, TNF, CCL3; flow cytometry
CD94/NKG2C [1] = assay: Steady-state SPR of peptide-HLA-E single chain trimers with CD94/NKG2C; format: binding, human; details: from Figure 5C KD values, stated in author rebuttal
Procedure: Specifically, we measured CD94/NKG2A and CD94/NKG2C affinity for HLA-E complexed with three sets of peptides. […] Third, we included […] peptide as a positive control.
Steady-state surface plasmon resonance experiments were performed with a Biacore T200 instrument. CD94/NKG2x in HBS-EP+ buffer was injected as analyte in a concentration range of 0.1 μM to 102.4 μM and flow rate of 10 μL/min at 25 °C. Data was fit with Prism 9.4 (GraphPad Software Inc; San Diego CA) to a “one site, specific binding” model. Sensorgrams are included in Supplemental Fig. 13.
For investigating WN peptides, biotinylated pMHC was immobilized at approximately 400 Response Units (RU) on a Series S SA sensor chip (Cytiva). […] CD94/NKG2A was injected followed by CD94/NKG2C.
For investigating human-derived peptides, Series S CM5 chips (Cytiva) were coupled to neutravidin and utilized. Biotinylated pMHC was immobilized at approximately 400 RU. On one chip, […] CD94/NKG2A was injected followed by CD94/NKG2C. On a second chip, PISD55-63 HLA-E SCT, AKAP6_388-396 HLA-E SCT, GTF3C5_293-301 HLA-E SCT, and reference HLA-DR401 were immobilized. CD94/NKG2C was injected followed by CD94/NKG2A. Rmax, fit values were calculated by Biacore software. Rmax, theoretical values were calculated using the analyte/ligand mass ratio (0.66) multiplied by the amount of ligand coupled to the chip.

CD94/NKG2C [2] = assay: CD94/NKG2C tetramer and dextramer staining of yeast-displayed peptide-HLA-E; format: binding, human; details: yeast-displayed single chain trimer, 500 nM tetramer, 2 h, 4 °C, flow cytometry
Text: To study the diversity of the HLA-E peptide repertoire recognized by CD94/NKG2x, we adapted an MHC yeast surface display system previously used to study class Ia MHC-restricted TCR recognition[25],[26]. In this system, peptide, Beta-2-microglobulin (β2M), and MHC heavy chain are covalently linked to each other and fused to the N-terminus of the yeast mating factor protein Aga2p (Fig. 1A, B). The HLA-E single chain trimer construct expressed well on the yeast surface, as confirmed via staining for an included hemagglutinin (HA) epitope tag and via an anti-HLA-E antibody (Fig. 1C). Since epitope tag staining assesses construct expression rather than protein fold[27]–[29], we tested peptide-HLA-E (pHLA-E) fold by staining with its cognate NK receptors. […] (Supplemental Fig. 1A, E–G), though both receptors were able to bind and enable selective enrichment of […]/HLA-E-expressing yeast using avid streptavidin-coated beads (Supplemental Fig. 1B–D).
To stain peptide-HLA-E (pHLA-E) with CD94/NKG2x tetramers, each biotinylated receptor was mixed with streptavidin coupled to AlexaFluor647 (SAV-647, made in-house) at a 5:1 ratio and incubated for 5 min on ice. Yeast were stained with 500 nM tetramer for 2 h at 4 °C in the dark with rotation. […]

Sequence	activating effects on NKG2C+ cells (NKG2A-/NKG2C+ NK cells)	weaker affinity of CD94/NKG2C compared to CD94/NKG2A (CD94/NKG2C [1])	weaker affinity of CD94/NKG2C compared to CD94/NKG2A (CD94/NKG2C [1]; listed as VL9)	CD94/NKG2C tetramer and dextramer staining (CD94/NKG2C [2])
VNPGRSLFL [BFAR263-271, human peptide from Bifunctional apoptosis regulator]	clear activating effects	–	–	–
VMAPRTLFL [positive control]	–	~ 3 fold	~ 2.7 fold	minimal signal
